Article PMC8933379, “Evaluation of the absolute oral bioavailability of the anaplastic lymphoma kinase/c-ROS oncogene 1 kinase inhibitor lorlatinib in healthy participants” (Cancer Chemotherapy and Pharmacology, 2021)
Entries after “also recorded” stand apart in the source; their conditions may differ.

Test: Safety evaluation (adverse events) in the crossover study
Procedure: Safety assessments were performed at screening, during the study, and at study completion, clinic discharge, or early termination. Safety assessments included physical examinations, 12‐lead ECGs, vital signs, and clinical laboratory evaluations. All adverse events (AEs) and concomitant treatments were monitored and recorded throughout the study. AEs were reported using NCI CTCAE terminology.

C[C@H]1Oc2cc(cnc2N)-c2c(nn(C)c2C#N)CN(C)C(=O)c2ccc(F)cc21 [Lorlatinib, (10R)-7-amino-12-fluoro-2,10,16-trimethyl-15-oxo-10,15,16,17-tetrahydro-2H-8,4-(metheno)pyrazolo[4,3-h][2,5,11]-benzoxadiazacyclotetradecine-3-carbonitrile]
Tolerability (50 mg IV dose and 100 mg single oral dose, healthy participants): generally well-tolerated
Number of TEAEs (treatment-emergent adverse events) (50 mg IV, n = 11): 8
Number of TRAEs (treatment-related adverse events) (50 mg IV, n = 11): 6
Number of participants who reported AEs (50 mg IV, n = 11): 4
Participants with AEs: Abdominal discomfort, all causality (50 mg IV, n = 11): 0
Participants with AEs: Contusion, TRAE (50 mg IV, n = 11): 0
Participants with AEs: Contusion, all causality (50 mg IV, n = 11): 1
Participants with AEs: Dizziness, TRAE (50 mg IV, n = 11): 1 (1)
Participants with AEs: Dizziness, all causality (50 mg IV, n = 11): 1 (1)
Participants with AEs: Dysuria, all causality (50 mg IV, n = 11): 0
Participants with AEs: Eye disorders, all causality (50 mg IV, n = 11): 0
Participants with AEs: Gastrointestinal disorders, all causality (50 mg IV, n = 11): 0
Participants with AEs: General disorders and administration side conditions, all causality (50 mg IV, n = 11): 0
Participants with AEs: Headache, TRAE (50 mg IV, n = 11): 2 (2)
Participants with AEs: Headache, all causality (50 mg IV, n = 11): 2 (2)
Participants with AEs: Injury, poisoning and procedural complications, TRAE (50 mg IV, n = 11): 0
Participants with AEs: Injury, poisoning and procedural complications, all causality (50 mg IV, n = 11): 1
Participants with AEs: Investigations, TRAE (50 mg IV, n = 11): 1 (1)
Participants with AEs: Investigations, all causality (50 mg IV, n = 11): 1 (1)
Participants with AEs: Mental impairment, all causality (50 mg IV, n = 11): 0
Participants with AEs: Nausea, all causality (50 mg IV, n = 11): 0
Participants with AEs: Nervous system disorders, TRAE (50 mg IV, n = 11): 2 (2)
Participants with AEs: Nervous system disorders, all causality (50 mg IV, n = 11): 2 (2)
Participants with AEs: Nervousness, TRAE (50 mg IV, n = 11): 0
Participants with AEs: Nervousness, all causality (50 mg IV, n = 11): 1
Participants with AEs: Paraesthesia, TRAE (50 mg IV, n = 11): 1 (1)
Participants with AEs: Paraesthesia, all causality (50 mg IV, n = 11): 1 (1)
Participants with AEs: Photophobia, all causality (50 mg IV, n = 11): 0
Participants with AEs: Psychiatric disorders, TRAE (50 mg IV, n = 11): 0
Participants with AEs: Psychiatric disorders, all causality (50 mg IV, n = 11): 1
Participants with AEs: Renal and urinary disorders, all causality (50 mg IV, n = 11): 0
Participants with AEs: Somnolence, all causality (50 mg IV, n = 11): 0
Participants with AEs: Transaminase increased, TRAE (50 mg IV, n = 11): 1 (1)
Participants with AEs: Transaminase increased, all causality (50 mg IV, n = 11): 1 (1)
Participants with AEs: Visual field defect, TRAE (50 mg IV, n = 11): 1 (1)
Participants with AEs: Visual field defect, all causality (50 mg IV, n = 11): 1 (1)
Deaths, serious AEs, severe AEs, discontinuations or dose reductions due to AEs (100 mg oral and 50 mg IV, 11 healthy participants): No deaths, serious adverse events (AEs), or severe AEs were reported; also recorded: No deaths, serious AEs, severe AEs, permanent discontinuations, temporary discontinuations, or dose reductions due to AEs were reported
Number of TEAEs (treatment-emergent adverse events) (100 mg oral tablets, n = 11): 12
Number of TRAEs (treatment-related adverse events) (100 mg oral tablets, n = 11): 9
Participants with AEs: Abdominal discomfort, TRAE (100 mg oral tablets, n = 11): 0
Participants with AEs: Abdominal discomfort, all causality (100 mg oral tablets, n = 11): 1
Participants with AEs: Contusion, all causality (100 mg oral tablets, n = 11): 0
Participants with AEs: Dizziness, TRAE (100 mg oral tablets, n = 11): 1 (1)
Participants with AEs: Dizziness, all causality (100 mg oral tablets, n = 11): 1 (1)
Participants with AEs: Dysuria, TRAE (100 mg oral tablets, n = 11): 1 (1)
Participants with AEs: Dysuria, all causality (100 mg oral tablets, n = 11): 1 (1)
Participants with AEs: Eye disorders, TRAE (100 mg oral tablets, n = 11): 1 (1)
Participants with AEs: Eye disorders, all causality (100 mg oral tablets, n = 11): 1 (1)
Participants with AEs: Gastrointestinal disorders, TRAE (100 mg oral tablets, n = 11): 0
Participants with AEs: Gastrointestinal disorders, all causality (100 mg oral tablets, n = 11): 2
Participants with AEs: General disorders and administration side conditions, TRAE (100 mg oral tablets, n = 11): 0
Participants with AEs: General disorders and administration side conditions, all causality (100 mg oral tablets, n = 11): 1
Participants with AEs: Headache, TRAE (100 mg oral tablets, n = 11): 2 (2)
Participants with AEs: Headache, all causality (100 mg oral tablets, n = 11): 2 (2)
Participants with AEs: Injury, poisoning and procedural complications, all causality (100 mg oral tablets, n = 11): 0
Participants with AEs: Investigations, TRAE (100 mg oral tablets, n = 11): 1 (1)
Participants with AEs: Investigations, all causality (100 mg oral tablets, n = 11): 1 (1)
Participants with AEs: Mental impairment, TRAE (100 mg oral tablets, n = 11): 1 (1)
Participants with AEs: Mental impairment, all causality (100 mg oral tablets, n = 11): 1 (1)
Participants with AEs: Nausea, TRAE (100 mg oral tablets, n = 11): 0
Participants with AEs: Nausea, all causality (100 mg oral tablets, n = 11): 1
Participants with AEs: Nervous system disorders, TRAE (100 mg oral tablets, n = 11): 3 (3)
Participants with AEs: Nervous system disorders, all causality (100 mg oral tablets, n = 11): 3 (3)
Participants with AEs: Nervousness, all causality (100 mg oral tablets, n = 11): 0
Participants with AEs: Paraesthesia, TRAE (100 mg oral tablets, n = 11): 1 (1)
Participants with AEs: Paraesthesia, all causality (100 mg oral tablets, n = 11): 1 (1)
Participants with AEs: Photophobia, TRAE (100 mg oral tablets, n = 11): 1 (1)
Participants with AEs: Photophobia, all causality (100 mg oral tablets, n = 11): 1 (1)
Participants with AEs: Psychiatric disorders, all causality (100 mg oral tablets, n = 11): 0
Participants with AEs: Renal and urinary disorders, TRAE (100 mg oral tablets, n = 11): 1 (1)
Participants with AEs: Renal and urinary disorders, all causality (100 mg oral tablets, n = 11): 1 (1)
Participants with AEs: Somnolence, TRAE (100 mg oral tablets, n = 11): 1 (1)
Participants with AEs: Somnolence, all causality (100 mg oral tablets, n = 11): 1 (1)
Participants with AEs: Transaminase increased, TRAE (100 mg oral tablets, n = 11): 1 (1)
Participants with AEs: Transaminase increased, all causality (100 mg oral tablets, n = 11): 1 (1)
Participants with AEs: Visual field defect, all causality (100 mg oral tablets, n = 11): 0
Number of participants who reported AEs (100 mg oral, n = 11): 4
